Target: T1, human GLP-1R receptor (Homo sapiens, UniProt P43220)
T1 construct: expressed in transfected cells
Experiment: GLP-1R low expression cell assay (cAMP TR-FRET, CHO-K1_hGLP-1Rlow_clone10 cells)
Format: cell-based
Conditions: for EC50: cAMP TR-FRET, 30 min at 25° C.
How it was run: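 Readout is cAMP TR-FRET after 30 min compound stimulation at 25 °C of a low-GLP-1R-expressing CHO-K1 clone (1,000 cells/well), with 10-point 3-fold serial dilutions. Percent activation versus a control GLP-1 peptide, from duplicates, was Hill-fitted to give EC50.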

[1] = maximum activation relative to control GLP-1 peptide agonist

T1 sequence (P43220 24-463): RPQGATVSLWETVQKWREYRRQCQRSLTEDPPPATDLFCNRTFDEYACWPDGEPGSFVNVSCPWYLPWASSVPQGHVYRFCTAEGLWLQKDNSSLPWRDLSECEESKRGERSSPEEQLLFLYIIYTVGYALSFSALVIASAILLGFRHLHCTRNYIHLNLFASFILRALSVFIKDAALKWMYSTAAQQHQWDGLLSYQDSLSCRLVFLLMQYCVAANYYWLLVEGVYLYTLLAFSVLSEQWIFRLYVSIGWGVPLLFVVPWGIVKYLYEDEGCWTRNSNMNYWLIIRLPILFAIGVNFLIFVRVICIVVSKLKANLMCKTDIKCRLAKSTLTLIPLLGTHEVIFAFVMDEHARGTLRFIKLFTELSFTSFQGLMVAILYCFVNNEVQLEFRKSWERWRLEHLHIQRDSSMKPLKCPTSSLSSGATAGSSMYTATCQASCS

| Compound | EC50 | Emax [1] | GLP-1R Low Expression Cell Assay Emax (%) [1] |
| --- | --- | --- | --- |
| Cn1c(CN2CCC(c3cccc(OCc4c(F)cc(Cl)cc4F)n3)CC2)nc2c(OC(F)F)cc(C(=O)O)cc21 [Compound 153, 2-((4-(6-((4-Chloro-2,6-difluorobenzyl)oxy)pyridin-2-yl)piperidin-1-yl)methyl)-4-(difluoromethoxy)-1-methyl-1H-benzo[d]imidazole-6-carboxylic acid] | 10 to 100 nM | > 85% |  |
| Cn1c(CN2CCC(c3ncccc3OCc3ccc(C#N)cc3F)CC2)nc2c(OC(F)F)cc(C(=O)O)cc21 [Compound 158, 2-((4-(3-((4-Cyano-2-fluorobenzyl)oxy)pyridin-2-yl)piperidin-1-yl)methyl)-4-(difluoromethoxy)-1-methyl-1H-benzo[d]imidazole-6-carboxylic acid] | > 1000 nM | 50 to 85% |  |
| Cn1c(CN2CCC(c3cc(OCc4ccc(Cl)cc4F)ccc3F)CC2)nc2c(OC(F)F)cc(C(=O)O)cc21 [Compound 167, 2-((4-(5-((4-Chloro-2-fluorobenzyl)oxy)-2-fluorophenyl)piperidin-1-yl)methyl)-4-(difluoromethoxy)-1-methyl-1H-benzo[d]imidazole-6-carboxylic acid] | > 1000 nM | 25 to 50% |  |
| Cn1c(CN2CCC(c3nccc(OCc4ccc(Cl)cc4F)n3)CC2)nc2c(OC(F)F)cc(C(=O)O)cc21 [Compound 168, 2-((4-(4-((4-Chloro-2-fluorobenzyl)oxy)pyrimidin-2-yl)piperidin-1-yl)methyl)-4-(difluoromethoxy)-1-methyl-1H-benzo[d]imidazole-6-carboxylic acid] | 10 to 100 nM | > 85% |  |
| Cn1c(CN2CCC(c3cccc(OCc4ccc(Cl)cc4F)n3)CC2)nc2c(OCC(F)F)cc(C(=O)O)cc21 [Compound 169, 2-((4-(6-((4-Chloro-2-fluorobenzyl)oxy)pyridin-2-yl)piperidin-1-yl)methyl)-4-(2,2-difluoroethoxy)-1-methyl-1H-benzo[d]imidazole-6-carboxylic acid] | < 10 nM | > 85% |  |
| Cn1c(CN2CCC(c3cccc(OCc4ccc(Cl)cc4F)n3)CC2)nc2c(OCCF)cc(C(=O)O)cc21 [Compound 170, 2-((4-(6-((4-Chloro-2-fluorobenzyl)oxy)pyridin-2-yl)piperidin-1-yl)methyl)-4-(2-fluoroethoxy)-1-methyl-1H-benzo[d]imidazole-6-carboxylic acid] | < 10 nM | > 85% |  |
| COc1c(OCc2ccc(Cl)cc2F)cccc1C1CCN(Cc2nc3c(OC(F)F)cc(C(=O)O)cc3n2C)CC1 [Compound 171, 2-((4-(3-((4-Chloro-2-fluorobenzyl)oxy)-2-methoxyphenyl)piperidin-1-yl)methyl)-4-(difluoromethoxy)-1-methyl-1H-benzo[d]imidazole-6-carboxylic acid] | > 1000 nM | < 25% |  |
| N#Cc1ccc(COc2cccc(C3CCN(Cc4nc5ccc(C(=O)O)c(O)c5n4C[C@@H]4CCO4)CC3)n2)c(F)c1 [Compound 172, (S)-2-((4-(6-((4-cyano-2-fluorobenzyl)oxy)pyridin-2-yl)piperidin-1-yl)methyl)-7-hydroxy-1-(oxetan-2-ylmethyl)-1H-benzo[d]imidazole-6-carboxylic acid] |  |  | + (Emax is <25%) |
| COc1cc(C(=O)O)cc2c1nc(N(C)[C@H]1CC[C@H](c3cccc(OCc4ccc(C#N)cc4F)n3)CC1)n2C [Compound 178, 2-(((1r,4r)-4-(6-((4-Cyano-2-fluorobenzyl)oxy)pyridin-2-yl)cyclohexyl)(methyl)amino)-4-methoxy-1-methyl-1H-benzo[d]imidazole-6-carboxylic acid] | < 10 nM | > 85% |  |
| Cn1c(CN2CCC(c3cccc(OCc4ccc(C#N)cc4F)n3)CC2)nc2c(OC(C)(F)F)cc(C(=O)O)cc21 [Compound 180, 2-((4-(6-((4-Cyano-2-fluorobenzyl)oxy)pyridin-2-yl)piperidin-1-yl)methyl)-4-(1,1-difluoroethoxy)-1-methyl-1H-benzo[d]imidazole-6-carboxylic acid] | 10 to 100 nM | > 85% |  |
| Cn1c(CN2CCC(c3cc(OCc4ccc(C#N)cc4F)ccc3F)CC2)nc2c(OC(F)F)cc(C(=O)O)cc21 [Compound 181, 2-((4-(5-((4-Cyano-2-fluorobenzyl)oxy)-2-fluorophenyl)piperidin-1-yl)methyl)-4-(difluoromethoxy)-1-methyl-1H-benzo[d]imidazole-6-carboxylic acid] | > 1000 nM | 50 to 85% |  |
| Cn1c(CN2CCC(c3cccc(F)c3OCc3ccc(C#N)cc3F)CC2)nc2c(OC(F)F)cc(C(=O)O)cc21 [Compound 182, 2-((4-(2-((4-Cyano-2-fluorobenzyl)oxy)-3-fluorophenyl)piperidin-1-yl)methyl)-4-(difluoromethoxy)-1-methyl-1H-benzo[d]imidazole-6-carboxylic acid] | 100 to 1000 nM | > 85% |  |

The remaining lines, values ahead:

| EC50 | Emax [1] | GLP-1R Low Expression Cell Assay Emax (%) [1] | Compound |
| --- | --- | --- | --- |
| 10 to 100 nM | > 85% |  | Cn1c(CN2CC=C(c3cccc(OCc4ccc(Cl)cc4F)n3)CC2)nc2c(OC(F)F)cc(C(=O)O)cc21 [Compound 155, 2-((6-((4-Chloro-2-fluorobenzyl)oxy)-3′,6′-dihydro-[2,4′-bipyridin]-1′(2′H)-yl)methyl)-4-(difluoromethoxy)-1-methyl-1H-benzo[d]imidazole-6-carboxylic acid] |
| 100 to 1000 nM | > 85% |  | Cn1c(CN2CCC(Oc3cccc(Cc4ccc(C#N)cc4F)n3)CC2)nc2c(OC(F)F)cc(C(=O)O)cc21 [Compound 157, 2-((4-((6-(4-Cyano-2-fluorobenzyl)pyridin-2-yl)oxy)piperidin-1-yl)methyl)-4-(difluoromethoxy)-1-methyl-1H-benzo[d]imidazole-6-carboxylic acid] |
| 100 to 1000 nM | > 85% |  | Cn1c(CN2CC=C(c3cccc(OCc4ccc(Cl)cc4F)c3)CC2)nc2c(OC(F)F)cc(C(=O)O)cc21 [Compound 159, 2-((4-(3-((4-Chloro-2-fluorobenzyl)oxy)phenyl)-3,6-dihydropyridin-1(2H)-yl)methyl)-4-(difluoromethoxy)-1-methyl-1H-benzo[d]imidazole-6-carboxylic acid] |
| 100 to 1000 nM | > 85% |  | Cn1c(CN2CCC(c3cccc(OCc4ccc(C#N)cc4F)n3)CC2)nc2c(OC(C)(C)CF)cc(C(=O)O)cc21 [Compound 160, 2-((4-(6-((4-Cyano-2-fluorobenzyl)oxy)pyridin-2-yl)piperidin-1-yl)methyl)-4-((1-fluoro-2-methylpropan-2-yl)oxy)-1-methyl-1H-benzo[d]imidazole-6-carboxylic acid] |
| > 1000 nM | 50 to 85% |  | Cn1c(CN2CCC(c3cccc(OCc4ccc(C5CCCO5)cc4F)n3)CC2)nc2c(OC(F)F)cc(C(=O)O)cc21 (centres unmarked) [Compound 177, 4-(Difluoromethoxy)-2-((4-(6-((2-fluoro-4-(tetrahydrofuran-2-yl)benzyl)oxy)pyridin-2-yl)piperidin-1-yl)methyl)-1-methyl-1H-benzo[d]imidazole-6-carboxylic acid] |
| > 1000 nM | 25 to 50% |  | Cn1c(CN2CCC(c3cccc(OCc4ccc(C#N)cc4F)c3Cl)CC2)nc2c(OC(F)F)cc(C(=O)O)cc21 [Compound 179, 2-((4-(2-Chloro-3-((4-cyano-2-fluorobenzyl)oxy)phenyl)piperidin-1-yl)methyl)-4-(difluoromethoxy)-1-methyl-1H-benzo[d]imidazole-6-carboxylic acid] |
